Laboratory results taken from article PMC12254266, “Multicolored sequential resonance energy transfer for detection of simultaneous ligand binding at G protein-coupled receptors” (Nature Communications, 2025).
Where “and” joins values, the source holds several entries; their conditions need not be identical. Equal entries are not always repeated. Where two headings read alike, the source gives them in different places.

Assays:
Nluc-FFA1 = target: T1, Nluc-FFA1 (Homo sapiens, UniProt O14842); assay: NanoBRET binding (saturation, competition, kinetics) at N terminal Nluc tagged FFA1
T1 construct: expressed in transfected cells

FFA1 [1] = target: T2, FFA1 (Homo sapiens, UniProt O14842); assay: NanoBiT arrestin-3 recruitment in HEK293T cells; assay type: cell-based; design: expressed in transfected cells; host or cells: HEK293T, transient; conditions: ± SEM
Protocol: For arrestin-3 recruitment assays, HEK293T cells were transfected with FFA1 receptor and a bystander NanoBiT split luciferase arrestin-3 recruitment biosensor. Cells were transfected and plated simultaneously in a reverse transfection protocol into a poly-D-lysine coated white 96-well plate. Per well, 60,000 cells were transfected with 5 ng plasmid expressing LgBiT with a N-terminal Lyn11 plasma membrane localisation tag, 5 ng plasmid expressing bovine arrestin-3 fused at its N-terminal to SmBiT tag and 30 ng plasmid expressing the human FFA1 receptor. Total DNA was made up to 100 ng total/well with empty pcDNA3 vector and transfected to cell suspension with 0.6 µg/well PEI. Following transfection cells were cultured for 24 h before use. On the day of assay, cells were washed twice with HBSS and incubated in HBSS for 30 min at 37 °C. NanoGlo substrate was added at a final 1:800 dilution and incubated in the dark for 10 min at 37 °C. […] Raw luminescence values were divided by baseline signal (average of first 5 data points prior to compound addition) and vehicle measurements subtracted from agonist treatment. Area under curves were calculated and concentration response curves plotted.

FFA1-Nluc = FFA1-Nluc (Homo sapiens, UniProt O14842); assay: Bystander BRET internalisation assay, FFA1-Nluc in HEK293T cells; assay type: cell-based; design: expressed in transfected cells; host or cells: HEK293T (ATCC, CRL-3216), transient; conditions: in words; up to 60 min
Protocol: Cells were transfected using a reverse transfection protocol while plating into a poly-D-lysine coated white 96-well plates. Cells were plated at 60,000 cells with 100 ng of plasmid DNA and 0.6 µg of polyethyleneimine (PEI) per well. Cells were cultured for 24 h before washing with HBSS and incubating in HBSS at 37 °C for 30 min. NanoGlo substrate was added a final 1:800 dilution and plates incubated for 10 min at 37 °C. […] After 5 min of baseline measurements, readings were paused and test compounds added to the plate.

FFA1 [2] = target: T2, FFA1; assay: Ca2+ mobilisation (Fura2) in Flp-In T-REx 293 cells expressing Nluc-FFA1, FFA1-Nluc or untagged FFA1; assay type: cell-based; design: expressed in transfected cells
In short: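 520 nm emission read at 340 and 380 nm excitation over 90 s spanning compound addition. Response taken as peak 340/380 ratio after subtracting pre-addition ratios.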

[3] = Nluc-FFA1, multiple concentration of labelled ligand association model

T2 sequence (O14842 whole entry, the tested form may be a part): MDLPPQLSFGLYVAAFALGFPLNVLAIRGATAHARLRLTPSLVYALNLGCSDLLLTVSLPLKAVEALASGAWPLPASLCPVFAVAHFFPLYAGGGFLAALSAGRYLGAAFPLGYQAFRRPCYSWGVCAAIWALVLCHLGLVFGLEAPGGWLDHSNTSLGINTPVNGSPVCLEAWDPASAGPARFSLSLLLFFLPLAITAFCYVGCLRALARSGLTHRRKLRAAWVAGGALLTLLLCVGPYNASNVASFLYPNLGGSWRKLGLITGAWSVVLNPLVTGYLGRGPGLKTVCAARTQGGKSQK
T1 sequence (O14842 whole entry): as the sequence (O14842 whole entry, the tested form may be a part) above
FFA1-Nluc, sequence (O14842 whole entry): as the sequence (O14842 whole entry, the tested form may be a part) above

Cc1cc(OCCCNC(=O)CCCN2\C(=C/C=C/C=C/C3=[N+](C)c4ccc(S(=O)(=O)[O-])cc4C3(C)C)C(C)(C)c3ccccc32)ccc1-c1cccc(COc2ccc(CCC(=O)O)c(F)c2)c1 [TUG-2591]
Kd (Nluc-FFA1; Nluc-FFA1, 95% confidence interval in parentheses, read-out: Kd, saturation BRET binding): 210 nM
kOn Nano-BRET (Nluc-FFA1; Nluc-FFA1, association then dissociation model): 26666.67 M⁻¹ s⁻¹
kOff Nano-BRET (Nluc-FFA1; Nluc-FFA1, association then dissociation model, TUG-2591 100 nM then TUG-905 10 μM, or TUG-2597 […] then T360 10 μM): 0.00683 s⁻¹
Kd (Nluc-FFA1; Nluc-FFA1, association then dissociation model, read-out: Kd Nano-BRET (kinetic)): 250 nM
kOff Nano-BRET Multiple Concentration (Nluc-FFA1; [3]): 0.0207 s⁻¹
kOn Nano-BRET Multiple Concentration (Nluc-FFA1; [3]): 125000 M⁻¹ s⁻¹
Kd (Nluc-FFA1; Nluc-FFA1, read-out: Kd Nano-BRET Multiple Concentration (kinetic)): 170 nM
BMax, saturation BRET binding (Nluc-FFA1; Nluc-FFA1, specific BRET, 95% confidence interval in parentheses): 0.31 (0.27-0.37)
kOff Nano-BRET Allosterism, Nluc-FFA1 (Nluc-FFA1; TUG-2591 (1 μM) in the presence of T360 (30μM), TUG-2597 (1 μM) in the presence of TUG-905 (30μM), 95% CI in parentheses): 0.034 (0.032-0.035) min-1
Kd (Nluc-FFA1; footnotes of Supplementary Table 3, read-out: Kd values obtained in NanoBRET saturation experiments (used for pKi) (converted)): 200 nM
off-rate, times faster in single ligand NanoBRET compared with dual ligand DISCo-BRET (Nluc-FFA1; ratio of off-rates): ~ 10
EMax (% TUG-905) arrestin-3 recruitment (FFA1 [1]; percentage of the response to 10 μM TUG-905): 91 ± 6%
pEC50 arrestin-3 recruitment (FFA1 [1]; N=3): 7.5 ± 0.4
internalization of FFA1-Nluc (FFA1-Nluc): No internalization
pEC50 (FFA1 [2]; Ca2+ data, mean±SEM, NR = No response): 6.47±0.16
Ca2+ Response as a % of T360 Response (FFA1 [2]; FFA1-Nluc cells, log[ligand] -6.5, technical replicates): 55.49% and 52.86% and 28.95% and 51.39% and 72.16% and 71.58% and 70.75% and 43.70% and 49.38%
Ca2+ Response as a % of T360 Response (FFA1 [2]; FFA1-Nluc cells, log[ligand] -7, technical replicates): 8.16%
Ca2+ Response as a % of T360 Response (FFA1 [2]; Nluc-FFA1 cells, log[ligand] -6.5, technical replicates): 34.81% and 37.98% and 35.96% and 31.33% and 37.74% and 35.87% and 21.49% and 18.21% and 19.57%
Ca2+ Response as a % of T360 Response (FFA1 [2]; Nluc-FFA1 cells, log[ligand] -7, technical replicates): 17.82% and 28.31% and 29.67% and 8.27% and 1.38% and 7.74% and -0.10% and 0.12%
Ca2+ Response as a % of T360 Response (FFA1 [2]; log[Ligand] -5, single technical replicates): 61.66% and 51.52% and 46.84% and 86.56% and 82.15% and 71.83% and 71.15% and 53.72%
Ca2+ Response as a % of T360 Response (FFA1 [2]; log[Ligand] -5.5, single technical replicates): 62.71% and 47.16% and 58.62% and 85.53% and 80.90% and 77.51% and 55.09% and 51.22%
Ca2+ Response as a % of T360 Response (FFA1 [2]; log[Ligand] -6, single technical replicates): 62.82% and 60.50% and 58.53% and 87.03% and 71.98% and 71.50% and 53.51% and 60.26% and 56.70%
Ca2+ Response as a % of T360 Response (FFA1 [2]; log[Ligand] -6.5, single technical replicates): 34.81% and 37.98% and 35.96% and 31.33% and 37.74% and 35.87% and 21.49% and 18.21% and 19.57%
Ca2+ Response as a % of T360 Response (FFA1 [2]; log[Ligand] -7, single technical replicates): 17.82% and 28.31% and 29.67% and 8.27% and 1.38% and 7.74% and -0.10% and 0.12% and -1.53%
Ca2+ Response as a % of T360 Response (FFA1 [2]; log[Ligand] -8, single technical replicates): 10.54% and 11.17% and 19.68% and 8.20% and 7.07% and 9.22% and 0.11% and 1.85% and 0.30%
Ca2+ Response as a % of T360 Response (FFA1 [2]; log[Ligand] -9, single technical replicates): 1.04% and 5.22% and 4.78% and 4.50% and 4.79% and 3.13% and 2.97% and -0.0331% and -1.56%
EMax (FFA1 [2]; percentage of response to 10 μM T360, NR = No response): 73±9%
Ca2+ Response as a % of T360 Response (FFA1 [2]; untagged FFA1 cells, log[ligand] -6.5, technical replicates): 69.40% and 67.64% and 73.36% and 82.87% and 85.96% and 73.97% and 51.16% and 43.14% and 56.15% and 83.71% and 86.53% and 111.93%
